The assay has as its system Eimeria tenella. Briefly: In vivo anti-coccidial activity determined at a dose of <16 p.p.m. (battery efficacy against Eimeria tenella); IA means Inactive. It is filed as functional, organism-based.

Activity calls are given as the source filed them. The calls are words filed in the database; no cut-off is given here.

Consider `CC1CC=C(c2c(Cl)cc(-n3ncc(=O)[nH]c3=O)cc2Cl)CC1` (centres undefined), for which the result was inactive.

For “[1-(2,5-Dimethoxy-phenyl)-vinyl]-trimethyl-stannane”, the result was inactive.

For `O=c1cnn(-c2ccc(I)c(C(F)(F)F)c2)c(=O)[nH]1`, the result was inactive.

As to “Trimethyl-(4-methyl-cyclohex-1-enyl)-stannane”, the outcome was inactive.

With `C=C(c1c(Cl)cc(-n2ncc(=O)[nH]c2=O)cc1Cl)C1CCCC1`, the result was inactive.

On to (1-Cyclohexyl-vinyl)-trimethyl-stannane, for which the outcome was inactive.

On to `C=C(c1c(Cl)cc(-n2ncc(=O)[nH]c2=O)cc1Cl)C1CCCCC1`, for which the result was inactive.

With “(1-Cyclopentyl-vinyl)-trimethyl-stannane”, the outcome was inactive.

For the molecule `O=C(O)c1nn(-c2ccc(I)c(C(F)(F)F)c2)c(=O)[nH]c1=O`, the result was inactive.

The record behind these values is ChEMBL document CHEMBL1127271, “Synthesis of 1,2,4-triazine-(2H,4H)-3,5,-dione anticoccidial agents via palladium-catalyzed cross-coupling reactions” (Bioorg Med Chem Lett, 1994).
